According to PubChem BioAssay (NCI):
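Assay format: 96-well plates, 48-hour exposure. At the TGI there is no net growth.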

Legend:
Assay in all cases: DTP human tumour cell line panel, 48 h
CAKI-1 renal = test system: CAKI-1 renal
EKVX NSCLC = test system: EKVX NSCLC
HCT-15 colon = test system: HCT-15 colon
HT29 colon = test system: HT29 colon
KM12 colon = test system: KM12 colon
M14 melanoma = test system: M14 melanoma
MALME-3M melanoma = test system: MALME-3M melanoma
MCF7 breast = test system: MCF7 breast
NCI-H522 lung = test system: NCI-H522 lung
RPMI-8226 leukemia = test system: RPMI-8226 leukemia
SF-268 CNS = test system: SF-268 CNS
SNB-75 CNS = test system: SNB-75 CNS

Row | SMILES | TGI (CAKI-1 renal) [µM] | TGI (EKVX NSCLC) [µM] | TGI (HCT-15 colon) [µM] | TGI (HT29 colon) [µM] | TGI (KM12 colon) [µM] | TGI (M14 melanoma) [µM] | TGI (MALME-3M melanoma) [µM] | TGI (MCF7 breast) [µM] | TGI (NCI-H522 lung) [µM] | TGI (RPMI-8226 leukemia) [µM] | TGI (SF-268 CNS) [µM] | TGI (SNB-75 CNS) [µM]
1 | c1ccc2c(CN3CCN(Cc4c[nH]c5ccccc45)CC3)c[nH]c2c1 | 69.4 | 39.4 | 44.4 | 36.1 | 33.1 | 29.1 | 29.5 | 36.9 | 31.3 | 53.2 | 36 | 30.2
2 | NC(=O)C(=O)c1ncn(Cc2ccccc2)c1N | > 100 | > 100 | > 100 | > 100 | > 100 | > 100 | > 100 | > 100 | > 100 | > 100 | > 100 | > 100
3 | CC(=O)Nc1ccc(NS(=O)(=O)c2ccc3nc(C)n(NS(=O)(=O)c4ccc(NC(C)=O)cc4)c(=O)c3c2)cc1 | > 100 | > 100 | > 100 | > 100 | > 100 | > 100 | > 100 | > 100 | > 100 | > 100 | > 100 | > 100
4 | CN(C)CCNc1nc2ccccc2c2c1CCCC2 | 44.7 | > 100 | > 100 | 95.1 | 41.4 | 32.5 | 30.1 | 29.1 | 33.1 | 46.7 | > 100 | 56.3
